Measured values as given in patent US7816371B2, “Bicycloheteroaryl compounds as P2X7 modulators and uses thereof” (Renovis, Inc., priority 2006, dated 2010).

molecular target: T1, P2X7 receptor (Homo sapiens, UniProt Q99572); assay: IL-1β release assay in differentiated THP-1 cells stimulated with BzATP (Example 9); % inhibition and IC50; type: cell-based; conditions: THP-1 cells differentiated with LPS and IFN-γ, 30 min pretreatment, BzATP 250 uM, IL-1β by ELISA
T1 construct: host or cells: THP-1 cells differentiated with LPS and IFN-γ
T1 sequence (Q99572 1-595): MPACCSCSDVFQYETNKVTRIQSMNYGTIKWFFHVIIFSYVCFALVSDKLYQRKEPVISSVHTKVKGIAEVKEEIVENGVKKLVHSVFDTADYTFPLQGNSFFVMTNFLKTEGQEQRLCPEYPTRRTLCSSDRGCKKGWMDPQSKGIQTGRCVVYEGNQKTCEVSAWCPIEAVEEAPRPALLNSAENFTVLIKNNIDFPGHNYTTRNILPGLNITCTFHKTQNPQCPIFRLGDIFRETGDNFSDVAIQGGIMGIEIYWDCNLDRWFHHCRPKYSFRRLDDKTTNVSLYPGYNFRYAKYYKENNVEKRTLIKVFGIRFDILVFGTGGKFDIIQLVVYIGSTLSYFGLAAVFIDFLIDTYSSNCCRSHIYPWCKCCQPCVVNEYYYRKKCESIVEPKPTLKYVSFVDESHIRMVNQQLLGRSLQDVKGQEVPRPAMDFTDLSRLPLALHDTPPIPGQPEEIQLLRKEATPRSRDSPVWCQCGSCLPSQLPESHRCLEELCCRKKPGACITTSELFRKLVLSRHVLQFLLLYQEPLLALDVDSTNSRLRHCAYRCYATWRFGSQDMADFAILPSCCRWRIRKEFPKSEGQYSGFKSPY
Experimental: The cells are then pretreated for 30 minutes with the compound of interest at the appropriate concentration in RPMI media containing 100 IU/mL penicillin, 100 ug/mL streptomycin. […] 30 uL of cell supernatant is then collected and IL-1β levels determined via ELISA (R&D systems Cat. # HSLB50) according to manufacturer's recommendations using the Tecan Safire plate reader. Background adjusted IL-1β levels of drug treated and non-treated cells are used to calculate the percent inhibition.
The compounds set forth in Table 1 were tested for activity in a cellular model as described herein.

Row | IC50 | Compound
1 | 57.3 nM | CC(C(=O)Nc1cccc2c(=O)n(CCO)ccc12)c1ccc(Cl)c(C(F)(F)F)c1 (stereo not drawn) [Compound 251]
2 | 48.9 nM | C[C@@H](C(N)=O)n1ccc2c(NC(=O)Cc3cccc(C(F)(F)F)c3F)cccc2c1=O [Compound 349]
3 | 15.5 nM | C[C@H](C(N)=O)n1ccc2c(NC(=O)Cc3ccc(F)c(F)c3)cccc2c1=O [Compound 303]
4 | 20.8 nM | C[C@@H](C(N)=O)n1ccc2c(NC(=O)Cc3ccc(F)c(C(F)(F)F)c3)cccc2c1=O [Compound 348]
5 | 9.7 nM | CC(C)[C@H](C(N)=O)n1ccc2c(NC(=O)[C@@H](C)c3ccc(Cl)cc3)cccc2c1=O [Compound 283]
6 | > 1000 nM | C[C@H](C(N)=O)n1ccc2c(NC(=O)Cc3cccc(C#N)c3)cccc2c1=O [Compound 288]
7 | 32.4 nM | C[C@H](C(N)=O)n1ccc2c(NC(=O)Cc3cc(F)c(F)c(F)c3)cccc2c1=O [Compound 381]
8 | > 1000 nM | O=C(CCc1cc(C(F)(F)F)cc(C(F)(F)F)c1)Nc1cccc2c(=O)n(CCO)ccc12 [Compound 61]
9 | 48.1 nM | C[C@@H](CO)n1ccc2c(NC(=O)Cc3ccc(F)c(C(F)(F)F)c3)cccc2c1=O [Compound 338]
10 | 720 nM | O=C(Cc1cc(Cl)ccc1C(F)(F)F)Nc1cccc2c(=O)n(CCO)ccc12 [Compound 68]
11 | 30.4 nM | C[C@H](C(N)=O)n1ccc2c(NC(=O)Cc3ccc(F)c(F)c3F)cccc2c1=O [Compound 379]
12 | 202 nM | C[C@@H](CO)n1ccc2c(NC(=O)Cc3ccc(Cl)c(F)c3)cccc2c1=O [Compound 334]
13 | 175 nM | CC(C)(CO)n1ccc2c(NC(=O)Cc3ccc(Cl)cc3F)cccc2c1=O [Compound 374]
14 | > 1000 nM | O=C(Cc1cc(C(F)(F)F)ccc1Cl)Nc1cccc2c(=O)n(CCO)ccc12 [Compound 67]

Continued, compound first:

Row | Compound | IC50
15 | NCC(CCl)Cn1ccc2c(NC(=O)Cc3ccc(Cl)c(C(F)(F)F)c3)cccc2c1=O (stereo not drawn) [Compound 258, N-[2-(3-Amino-2-chloromethyl-propyl)-1-oxo-1,2-dihydro-isoquinolin-5-yl]-2-(4-chloro-3-trifluoromethyl-phenyl)-acetamide] | 9.92 nM
16 | O=C(Cc1ccc(C(F)(F)F)cc1C(F)(F)F)Nc1cccc2c(=O)n(CCO)ccc12 [Compound 230] | 161 nM
17 | CNC(=O)[C@@H](CO)n1ccc2c(NC(=O)C(C)c3ccc(Cl)cc3)cccc2c1=O (stereo partly drawn) [Compound 261] | 188 nM
18 | C[C@H](CO)n1ccc2c(NC(=O)Cc3ccc(F)c(C(F)(F)F)c3)c(Cl)ccc2c1=O [Compound 377, N-[6-Chloro-2-((R)-2-hydroxy-1-methyl-ethyl)-1-oxo-1,2-dihydro-isoquinolin-5-yl]-2-(4-fluoro-3-trifluoromethyl-phenyl)-acetamide] | 0.38 nM
19 | C[C@@H](C(N)=O)n1ccc2c(NC(=O)Cc3ccc(Cl)nc3)cccc2c1=O [Compound 310] | > 1000 nM
20 | O=C(Cc1ccc(Cl)c(C(F)(F)F)c1)Nc1cccc2c(=O)n(C(CO)CO)ccc12 [Compound 81, 2-(4-Chloro-3-trifluoromethyl-phenyl)-N-[2-(2-hydroxy-1-hydroxymethyl-ethyl)-1-oxo-1,2-dihydro-isoquinolin-5-yl]-acetamide] | 27.8 nM
21 | C[C@H](C(=O)Nc1cccc2c(=O)n([C@@H](C)CO)ccc12)c1ccc(Cl)c(Cl)c1 [Compound 326] | 122 nM
22 | CC(C)[C@H](C(=O)NC1CC1)n1ccc2c(NC(=O)[C@@H](C)c3ccc(Cl)cc3)cccc2c1=O [Compound 281, (R)-2-{5-[(S)-2-(4-Chloro-phenyl)-propionylamino]-1-oxo-1H-isoquinolin-2-yl}-N-cyclopropyl-3-methyl-butyramide] | 7.39 nM
23 | C[C@H](C(N)=O)n1ccc2c(NC(=O)Cc3ccc(C(F)(F)F)cc3C(F)(F)F)cccc2c1=O [Compound 380] | 64.3 nM
24 | O=C(Cc1ccc(Cl)c(C(F)(F)F)c1)Nc1cccc2c(=O)n(CC3CCNCC3)ccc12 [Compound 257, 2-(4-Chloro-3-trifluoromethyl-phenyl)-N-(1-oxo-2-piperidin-4-ylmethyl-1,2-dihydro-isoquinolin-5-yl)-acetamide] | 39 nM
